Patent US20110009343A1, “MODULATORS OF AMYLOID AGGREGATION” (Praecis Pharmaceuticals, Inc., priority 1995, published 2011)
Ends that are not written are not given here. Peptide text beside a SMILES is read from it. * marks the point of attachment. Cholyl = C[C@H](CCC(=O)*)[C@H]1CC[C@H]2[C@@H]3[C@H](O)C[C@@H]4C[C@H](O)CC[C@]4(C)[C@H]3C[C@H](O)[C@]12C

Experiments:
Aβ1-40 = target: T1, Aβ1-40 (Homo sapiens, UniProt P05067); test: Nucleation assay (turbidity, A405 nm); assay type: biochemical; conditions: for ΔLag (ratio of lag time with test compound to lag time of control) / inhibition at 100 mol %: Table V; for ΔLag (ratio of lag time with test compound to lag time of control): 100 mole % inhibitor relative to Aβ1-40; for inhibition at 100 mol %: 100 mole % inhibitor, read-out: % Inucl'n (percent reduction in maximum observed turbidity);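 as to all read-outs here: synthetic Aβ monomer polymerization followed by turbidity in 96-well plates with continuous shaking, read every 15 minutes over 5 hours, compared against wells lacking test compound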
T1 construct: (β-AP1-40) was obtained commercially from Bachem (Torrance, Calif.); purchased Bachem (Torrance, Calif.)
Source text: The nucleation assay is employed to determine the ability of test compounds to alter (e.g. inhibit) the early events in formation of β-AP fibers from monomeric β-AP. […] The time delay before polymerization of β-AP monomer can be quantified as well as the extent of formation of insoluble fiber by light scattering (turbidity). Polymerization reaches equilibrium when the maximum turbidity reaches a plateau. The turbidity of a solution of natural β-AP in the absence or presence of various concentrations of a β-amyloid modulator compound is determined by measuring the apparent absorbance of the solution at 405 nm (A405 nm) over time. The threshold of sensitivity for the measurement of turbidity is in the range of 15-20 μM β-AP. […] This assay can be performed using stirring or shaking to accelerate polymerization, thereby increasing the speed of the assay. Moreover the assay can be adapted to a 96-well plate format to screen multiple compounds.
HFIP-solubilized peptide is sonicated in a waterbath sonicator for 5 mM at highest setting, then evaporated to dryness under a stream of argon. The peptide film is resuspended in anhydrous dimethylsulfoxide (DMSO) at a concentration of 6.9 mg/ml (25× concentration), sonicated for 5 mM as before, then filtered through a 0.2 micron nylon syringe filter (VWR cat. No. 28196-050). Test compounds are dissolved in DMSO at a 100× concentration. […] Ten microliters of the mixture is then added to the bottom of a well of a Corning Costar ultra low binding 96-well plate (Corning Costar, Cambridge Mass.; cat. No. 2500). Ninety microliters of water is added to the well, the plate is shaken on a rotary shaken at a constant speed at room temperature for 30 seconds, an additional 100 μl of 2×PTL buffer (20 mM NaH2PO4, 300 mM NaCl, pH 7.4) is added to the well, the plate is reshaken for 30 seconds and a baseline (t=0) turbidity reading is taken by measuring the apparent absorbance at 405 nm using a Bio-Rad Model 450 Microplate Reader. The plate is then returned to the shaker and shaken continuously for 5 hours. Turbidity readings are taken at 15 minute intervals.
β-amyloid aggregation in the absence of any modulators results in enhanced turbidity of the natural β-AP solution (i.e., an increase in the apparent absorbance at 405 nm over time).
Accordingly a fold increase in lag time of 1.0 indicates no change in lag time, whereas numbers >1.0 indicate an increase in lag time. The “% inhibition of plateau”, which is a measure of the ability of the compound to decrease the total amount of aggregation, refers to the reduction of the final turbidity in the presence of the test compound expressed as a percent of the control without the test compound.

cultured neuronal cells = test: Neurotoxicity of Aβ1-40 preparations with or without modulator (MTT), cell line not specified; assay type: cell-based; conditions: for delay of the appearance of neurotoxicity relative to control: compared with delay of polymerization in nucleation assay
Experimental: The neurotoxicity of natural β-amyloid peptide aggregates, in either the presence or absence of a β-amyloid modulator, is tested in a cell-based assay using either a rat or human neuronally-derived cell line (PC-12 cells or NT-2 cells, respectively) and the viability indicator 3,(4,4-dimethylthiazol-2-yl)2,5-diphenyl-tetrazolium bromide (MTT). […] MTT (commercially available from Sigma Chemical Co.) is a chromogenic substrate that is converted from yellow to blue in viable cells, which can be detected spectrophotometrically.
To test the neurotoxicity of natural β-amyloid peptides, stock solutions of fresh Aβ monomers and aged Aβ aggregates were first prepared. […] Peptide prepared in this way and tested immediately on cells is referred to as “fresh” Aβ monomer. To prepare “aged” Aβ aggregates, peptide solution was placed in a 1.5 ml Eppendorf tube and incubated at 37° C. for eight days to allow fibrils to form. Such “aged” Aβ peptide can be tested directly on cells or frozen at −80° C. The neurotoxicity of fresh monomers and aged aggregates were tested using PC12 and NT2 cells. PC 12 cells were routinely cultured in Dulbeco's modified Eagle's medium (DMEM) containing 10% horse serum, 5% fetal calf serum, 4 mM glutamine, and 1% gentamycin. NT2 cells were routinely cultured in OPTI-MEM medium (GIBCO BRL CAT. #31985) supplemented with 10% fetal calf serum, 2 mM glutamine and 1% gentamycin. Cells were plated at 10-15,000 cells per well in 90 μl of fresh medium in a 96-well tissue culture plate 3-4 hours prior to treatment. The fresh or aged Aβ peptide solutions (10 μL) were then diluted 1:10 directly into tissue culture medium so that the final concentration was in the range of 1-10 μM peptide. Cells are incubated in the presence of peptide without a change in media for 48 hours at 37° C. For the final three hours of exposure of the cells to the β-AP preparation, MTT was added to the media to a final concentration of 1 mg/ml and incubation was continued at 37° C. Following the two hour incubation with MTT, the media was removed and the cells were lysed in 100 μL isopropanol/0.4N HCl with agitation. An equal volume of PBS was added to each well and the plates were agitated for an additional 10 minutes. Absorbance of each well at 570 nm was measured using a microtiter plate reader to quantitate viable cells.

Aβ(1-40) peptide [1] = target: T2, Aβ(1-40) peptide (Homo sapiens, UniProt P05067); test: Seeded static assay (SSA), Thioflavin-T fluorescence; assay type: biochemical; conditions: inhibitor tested at 100 μM and 10 μM
T2 construct: (β-AP1-40) was obtained commercially from Bachem (Torrance, Calif.); purchased Bachem (Torrance, Calif.)
Experimental: The peptide was dissolved in 1/25 volume of dimethysulfoxide (DMSO), followed by water to 1/2 volume and 1/2 volume 2×PBS (10×PBS: NaCl 137 mM, KCl 2.7 mM Na2HPO4.7H2O 4.3 mM, KH2PO4 1.4 mM pH 7.2) to a final concentration of 200 μM.
To prepare a stock seed, 1 ml of the above Aβ monomer preparation, was incubated for 8 days at 37° C. and sheared sequentially through an 18, 23, 26 and 30 gauge needle 25, 25, 50, and 100 times respectively. 2 μl samples of the sheared material was taken for fluorescence measurements after every 50 passes through the 30 gauge needle until the fluorescence units (FU) had plateaued (approx. 100-150×).
To prepare a candidate inhibitor, the required amount of candidate inhibitor was weighed out and the stock dissolved in 1×PBS to a final concentration of 1 mM (10× stock). If insoluble, it was dissolved in 1/10 volume of DMSO and diluted in 1×PBS to 1 mM. […]
For the aggregation assay, each sample was set up in triplicate [50 μl of 200 μM monomer, 125 FU sheared seed (variable quantity dependent on the batch of seed, routinely 3-6 μl), 10 μl of 10× inhibitor solution, final volume made up to 100 μl with 1×PBS]. […] The assay was incubated at 37° C. for 6 h, taking 2 μl samples hourly for fluorescence measurements. To measure fluorescence, a 2 μl sample of Aβ was added to 400 μl of Thioflavin-T solution (50 mM Potassium Phosphate 10 mM Thioflavin-T pH 7.5).

Aβ(1-40) peptide [2] = target: T2, Aβ(1-40) peptide; test: Shaken plate aggregation assay (absorbance 405 nm); assay type: biochemical; conditions: % conc relative to Aβ(1-40) as printed in cell
Experimental: HFIP solubilized peptide was sonicated in a waterbath sonicator for 5 mM at highest setting, then evaporated to dryness under a stream of argon. The peptide film was resuspended in anhydrous dimethylsulfoxide (DMSO) at a concentration of 6.9 mg/ml, sonicated for 5 mM as before, then filtered through a 0.2 micron nylon syringe filter (VWR cat. No. 28196-050).
Candidates were assayed in triplicate. […] Into an ultra low binding 96 well plate (Corning Costar cat. No. 2500, Cambridge Mass.) 100 rtl PTL buffer (150 mM NaCl, 10 mM NaH2PO4; pH 7.4) was aliquotted per well. For each candidate, 10 μl of peptide mixture in DMSO was aliquotted into each of three wells containing buffer. The covered plate was vigorously vortexed on a plate shaker at high speed for 30 seconds. An additional 100 μl of PTL buffer was added to each well and again the plate was vortexed vigorously for 30 sec. Absorbance at 405 nm was immediately read in a plate reader for a baseline reading. The plate was returned to the plate shaker and vortexed at moderate speed for 5 hours at room temperature, with absorbance readings taken at 15-20 mM intervals. Increased absorbance indicated aggregation.

β-AP1-40 = target: T3, β-AP1-40 (Homo sapiens, UniProt P05067); test: Static aggregation assay (SDS-PAGE); assay type: biochemical
T3 construct: (β-AP1-40) was obtained commercially from Bachem (Torrance, Calif.); purchased Bachem (Torrance, Calif.)
Experimental: In a third assay, β-AP aggregation was measured by visualization of the peptide aggregates using SDS-polyacrylamide gel electrophoresis (SDS-PAGE). In this assay, β-AP solutions were allowed to aggregate over a period of time and then aliquots of the reaction were run on a standard SDS-PAGE gel. Typical solution conditions were 200 μM of β-AP1-40 in PBS at 37° C. for 8 days or 200 μM β-AP1-40 in 0.1 M sodium acetate at 37° C. for 3 days. The peptide aggregates were visualized by Coomassie blue staining of the gel or, for β-AP solutions that included a biotinylated β-AP modulator, by western blotting of a filter prepared from the gel with a streptavidin-peroxidase probe, followed by a standard peroxidase assay. The β-AP aggregates are identifiable as high molecular weight, low mobility bands on the gel, which are readily distinguishable from the low molecular weight, high mobility β-AP monomer or dimer bands.

natural β-AP (β-AP1-40) = target: T4, natural β-AP (β-AP1-40) (Homo sapiens, UniProt P05067); test: Optical density (turbidity, A400 nm) aggregation assay; assay type: biochemical
T4 construct: (β-AP1-40) was obtained commercially from Bachem (Torrance, Calif.); purchased Bachem (Torrance, Calif.)
T4 sequence (P05067 672-711): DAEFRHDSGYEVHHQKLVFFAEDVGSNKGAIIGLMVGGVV
Experimental: In one assay, β-AP aggregation was measured by determining the increase in turbidity of a solution of natural β-AP over time in the absence or presence of various concentrations of the modulator. Turbidity of the solution was quantitated by determining the optical density at 400 nm (A400 nm) of the solution over time.
The aggregation of natural β-AP in the absence of modulator was determined as follows. β-AP1-40 was dissolved in hexafluoro isopropanol (HFIP; Aldrich Chemical Co., Inc.) at 2 mg/ml. Aliquots of the HFIP solution (87 μl) were transferred to individual 10 mm×75 mm test tubes. A stream of argon gas was passed through each tube to evaporate the HFIP. To the resulting thin film of peptide, dimethylsulfoxide (DMSO; Aldrich Chemical Co., Inc.) (25 μl) was added to dissolve the peptide. A 2 mm×7 mm teflon-coated magnetic stir bar was added to each tube. Buffer (475 μL of 100 mM NaCl, 10 mM sodium phosphate, pH 7.4) was added to the DMSO solution with stiffing. The resulting mixture was stirred continuously and the optical density was monitored at 400 nm to observe the formation of insoluble peptide aggregates.
Alternatively, β-AP1-40 was dissolved in DMSO as described above at 1.6 mM (6.9 mg/ml) and aliquots (25 μl) were added to stirred buffer (475 μl), followed by monitoring of absorbance at 400 nm […]

T1 sequence (P05067 672-711): as above
T2 sequence (P05067 672-711): as above
T3 sequence (P05067 672-711): as above

Molecule	Fold Increase in Lag Time (Aβ1-40; Table IV, 10 mole %) [fold]	ΔLag (ratio of lag time with test compound to lag time of control) (Aβ1-40)	inhibition at 100 mol % (Aβ1-40) [%]	delay of the appearance of neurotoxicity relative to control (cultured neuronal cells)	Fold Increase in Lag Time (Aβ1-40; Table IV, 100 mole %) [fold]	also measured
CC(C)C[C@H](NC(=O)[C@H](CCCCN)NC(=O)[C@H](CCC(N)=O)NC(=O)[C@H](Cc1c[nH]cn1)NC(=O)[C@H](Cc1c[nH]cn1)NC(=O)[C@@H](NC(=O)[C@H](CCC(=O)O)NC(=O)[C@H](Cc1ccc(O)cc1)NC(=O)CNC(=O)[C@H](CO)NC(=O)[C@H](CC(=O)O)NC(=O)[C@H](Cc1c[nH]cn1)NC(=O)CC[C@@H](C)[C@H]1CC[C@H]2[C@@H]3[C@H](O)C[C@@H]4C[C@H](O)CC[C@]4(C)[C@H]3C[C@H](O)[C@]12C)C(C)C)C(=O)N[C@H](C(=O)N[C@@H](Cc1ccccc1)C(=O)N[C@@H](Cc1ccccc1)C(=O)O)C(C)C [PPI-264, cholyl-Aβ6-20] (Cholyl-HDSGYEVHHQKLVFF-OH)	2.0					Fold Increase in Lag Time (Aβ1-40; Table II, 100 mole % vs 50 μM Aβ1-40): >4.5 fold; Fold Increase in Lag Time (Aβ1-40; Table III, 10 mole %): 2 fold; Fold Increase in Lag Time (Aβ1-40; Table III, 100 mole %): >4.5 fold; aggregation of Aβ1-40 (turbidity) (Aβ1-40; equimolar: Aβ1-40 and modulator both 64 μM, FIG. 4 panel A): effective at inhibiting aggregation of Aβ140; neurotoxicity of Aβ1-40 solution preincubated with modulator (cultured neuronal cells; modulator preincubated with Aβ1-40 monomers, applied to cells 48 hours, MTT): inhibits the neurotoxicity of the Aβ1-40 solution
CC(C)C[C@H](NC(=O)[C@H](CCCCN)NC(=O)CC[C@@H](C)[C@H]1CC[C@H]2[C@@H]3[C@H](O)C[C@@H]4C[C@H](O)CC[C@]4(C)[C@H]3C[C@H](O)[C@]12C)C(=O)N[C@H](C(=O)N[C@@H](Cc1ccccc1)C(=O)N[C@@H](Cc1ccccc1)C(N)=O)C(C)C [PPI-319, cholyl-Aβ16-20-amide]	2.7	5.4	70	coincided with the delay in the time at which polymerization of Aβ began		Fold Increase in Lag Time (Aβ1-40; Table IV, 33 mole %): 5.6 fold
CC(C)C[C@H](NC(=O)[C@H](CCCCN)NC(=O)[C@H](CCC(N)=O)NC(=O)CC[C@@H](C)[C@H]1CC[C@H]2[C@@H]3[C@H](O)C[C@@H]4C[C@H](O)CC[C@]4(C)[C@H]3C[C@H](O)[C@]12C)C(=O)N[C@H](C(=O)N[C@@H](Cc1ccccc1)C(=O)N[C@@H](Cc1ccccc1)C(=O)O)C(C)C [PPI-349, cholyl-Aβ15-20]	2.1	>5	100	coincided with the delay in the time at which polymerization of Aβ began	>5.0	Fold Increase in Lag Time (Aβ1-40; Table III, 33 mole %): 2.3 fold; Fold Increase in Lag Time (Aβ1-40; Table IV, 33 mole %): 2.6 fold
CC(C)C[C@H](NC(=O)[C@H](CCCCN)NC(=O)CC[C@@H](C)[C@H]1CC[C@H]2[C@@H]3[C@H](O)C[C@@H]4C[C@H](O)CC[C@]4(C)[C@H]3C[C@H](O)[C@]12C)C(=O)N[C@H](C(=O)N[C@@H](Cc1ccccc1)C(=O)N[C@@H](Cc1ccccc1)C(=O)O)C(C)C [PPI-350, cholyl-Aβ16-20]	2.4	1.8	72	coincided with the delay in the time at which polymerization of Aβ began	>5.0	Fold Increase in Lag Time (Aβ1-40; Table III, 38 mole %): 3.4 fold
CC(C)C[C@H](NC(=O)CC[C@@H](C)[C@H]1CC[C@H]2[C@@H]3[C@H](O)C[C@@H]4C[C@H](O)CC[C@]4(C)[C@H]3C[C@H](O)[C@]12C)C(=O)N[C@H](C(=O)N[C@@H](Cc1ccccc1)C(=O)N[C@@H](Cc1ccccc1)C(=O)N[C@@H](C)C(=O)O)C(C)C [PPI-368, cholyl-Aβ17-21]		>5	100	coincided with the delay in the time at which polymerization of Aβ began	>5.0	
Candidate Inhibitor 224: Aβ1-40 mutant F19F20->T19T20						Effect in Seeded Static Assay (Aβ(1-40) peptide [1]): ++ (A strong inhibitor of aggregation. The rate of aggregation in the presence of the inhibitor was decreased compared to the control by at least 30-50%); Effect in shaken plate assay (Aβ(1-40) peptide [2]): Increased lag
Candidate Inhibitor 233: Aβ6-20 modified with acetic acid (HDSGYEVHHQKLVFF; also: modified with acetic acid; UniProt P05067 677-691, looked up, fragment)						Effect in Seeded Static Assay (Aβ(1-40) peptide [1]): ++ (A strong inhibitor of aggregation. The rate of aggregation in the presence of the inhibitor was decreased compared to the control by at least 30-50%)
N-biotinyl-βAP1-40						modulator self-aggregation (high molecular weight aggregates on gel) (β-AP1-40; N-biotinyl peptide alone, no natural β-AP): few if any high molecular weight aggregates were observed; aggregation of mixture with natural β-AP1-40 (high molecular weight aggregates on gel) (β-AP1-40; mixture of natural β-AP1-40 and modulator): reduced amounts of the peptide mixture associated into high molecular weight aggregates; aggregation of natural β-AP1-40 (turbidity: lag time, slope, plateau) (natural β-AP (β-AP1-40); modulator at 1% in natural β-AP1-40 solution): markedly inhibited; aggregation of natural β-AP1-40 (turbidity) (natural β-AP (β-AP1-40); modulator at 5% in natural β-AP1-40 solution): similarly inhibited aggregation
PPI-426: CA-FFVLA-oh, rearranged Aβ17-21				coincided with the delay in the time at which polymerization of Aβ began		
